Experiment: xn = mol fraction of the nth substance listed
Settings: 96.7 kPa

CS(C)=O + CC(=O)[O-].CCCC[n+]1ccn(C)c1
x2 = 0
Settings	viscosity [mPa·s]
303.15 K	1.8
308.15 K	1.665
313.15 K	1.529
318.15 K	1.407
323.15 K	1.304
328.15 K	1.211
333.15 K	1.127
343.15 K	0.989
348.15 K	0.931

CC(=O)[O-].CCCC[n+]1ccn(C)c1 + CS(C)=O
viscosity [mPa·s]
Settings	303.15 K	308.15 K	313.15 K	318.15 K	323.15 K	328.15 K	333.15 K	338.15 K	343.15 K	348.15 K
x1 = 0.21	6.44	–	4.98	–	3.81	3.39	3.08	2.77	–	2.3
x1 = 0.285	9.15	7.85	6.63	5.91	–	–	–	3.69	3.3	3.01
x1 = 0.369	13.34	11.31	9.67	8.25	7.12	6.3	5.48	4.89	–	3.97
x1 = 0.478	22.7	18	14.83	12.54	10.64	9.15	7.97	6.92	6.06	5.44
x1 = 0.606	51.5	39.2	30.3	–	19.2	–	12.9	10.5	8.81	7.34
x1 = 0.789	98.8	74.1	56.1	42.7	33.2	26.7	21.7	–	15.07	12.69
x1 = 0.884	131.1	96.5	75.2	–	47.5	39	32.8	28.1	–	–
x1 = 1	253	180.6	133.1	102	79.4	62.1	50.2	40.7	–	28.4
